Earlier results as cited in patent US20020002154A1, “METHOD AND COMPOSITION FOR TREATMENT OF INFLAMMATORY CONDITIONS” (priority 1998, published 2002).

Test system: acute phase of Crohn's Disease (CD)

## CCCC1O[C@@H]2C[C@H]3[C@@H]4CCC5=CC(=O)C=C[C@]5(C)[C@H]4[C@@H](O)C[C@]3(C)[C@]2(C(=O)CO)O1 (stereo partly shown) [budesonide]
  side-effects compared to prednisone: fewer side-effects
